Experimental data published in patent US9062289B2, “Differentiation of primate pluripotent stem cells to cardiomyocyte-lineage cells” (Asterias Biotherapeutics, Inc., priority 2005, dated 2015).

Test system: primate pluripotent stem cell-derived cardiomyocytes
Assay: Contractile activity of primate pluripotent stem cell-derived cardiomyocytes
Format: cell-based
Conditions: spontaneous periodic contractions in culture
Procedure: Under appropriate circumstances, primate pluripotent stem cell-derived cardiomyocytes often show spontaneous periodic contractile activity. This means that when they are cultured in a suitable tissue culture environment with an appropriate Ca^++ concentration and electrolyte balance, the cells can be observed to contract across one axis of the cell, and then release from contraction, without having to add any additional components to the culture medium. The contractions are periodic, which means that they repeat on a regular or irregular basis, at a frequency between ˜6 and 200 contractions per minute, and often between ˜20 and ˜90 contractions per minute in normal buffer (FIG. 2). Individual cells may show spontaneous periodic contractile activity on their own, or they may show spontaneous periodic contractile activity in concert with neighboring cells in a tissue, cell aggregate, or cultured cell mass.
The contractile activity of the cells can be characterized according to the influence of culture conditions on the nature and frequency of contractions. Compounds that reduce available Ca^++ concentration or otherwise interfere with transmembrane transport of Ca^++ often affect contractile activity. […] Further characterization of functional properties of the cell can involve characterizing channels for Na^+, K^+, and Ca^++. Electrophysiology can be studied by patch clamp analysis for cardiomyocyte like action potentials. See Igelmund et al., Pflugers Arch. 437:669, 1999; Wobus et al., Ann. N.Y. Acad. Sci. 27:752, 1995; and Doevendans et al., J. Mol. Cell Cardiol. 32:839, 2000.

SMILES: COc1ccc([C@@H]2Sc3ccccc3N(CCN(C)C)C(=O)[C@@H]2OC(C)=O)cc1 [diltiazem]
- contractile activity: inhibits contractile activity in a dose-dependent manner

SMILES: CC(C)NCC(O)c1ccc(O)c(O)c1 (stereo not drawn) [isoprenaline]
- chronotropic effect: positive chronotropic effect

SMILES: CNC[C@H](O)c1cccc(O)c1 [phenylephrine]
- chronotropic effect: positive chronotropic effect
